Data on four compounds can be found in US11000488B2 (priority 2019, dated 2021).

Series [1] can be described thus: steady-state pharmacokinetics, 50 mg tramadol vs 20 mg desmetramadol every 6 hours, nine doses, trials A and B (B with paroxetine). The settings on record: after tramadol dosing, with vs without paroxetine.
For series [2] the following is noted: human, in vivo, po; cited from earlier work.

For `COc1cccc(C2(O)CCCCC2CN(C)C)c1` (single isomer, unassigned; (-)) [(−)-tramadol, 1S,2S-tramadol, reference compound], the “levels in trial B as % of levels in trial A” value in series [1] was found to be 200%.
`COc1cccc([C@@]2(O)CCCC[C@@H]2CN(C)C)c1` [(+)-tramadol, 1R,2R-tramadol, reference compound]: in series [1], the “levels in trial B as % of levels in trial A” value was 200%.
`COc1ccc2c3c1O[C@H]1C(=O)CC[C@H]4[C@@H](C2)N(C)CC[C@]314` [hydrocodone]: the lethal oral dose in series [2] was 90 mg.
Consider `COc1ccc2c3c1O[C@H]1C(=O)CC[C@@]4(O)[C@@H](C2)N(C)CC[C@]314` [oxycodone], for which the lethal oral dose in series [2] is given as 40 mg.
